How the values were obtained:
Human neurokinin (NK1) = biological target: T1, Human neurokinin (NK1) (Homo sapiens, UniProt P25103); experiment: Radioligand binding, human neurokinin NK1 membranes, filtration, [125I]-Substance P; conditions: compound at 10 μM, [125I]-Substance P
T1 construct: purchased Perkin Elmer Biosignal
Summary of the method: (§1)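 Percent inhibition of radioligand binding measured on recombinant human membranes: NK1 with [125I]-Substance P, KOP with [3H]-Diprenorphine. Incubation 1 h at room temperature, then harvest onto 0.3% PEI-soaked filters, cold Tris-HCl pH 7.4 washes and scintillation counting; non-specific binding from reference ligand wells.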

Mouse urotensin (mUR2) = biological target: T2, Mouse urotensin (mUR2) (Mus musculus, UniProt Q8VIH9); experiment: Radioligand binding, mouse urotensin mUR2 membranes, FlashPlate, [125I]-Urotensin II; conditions: compound at 10 μM, [125I]-Urotensin II
T2 construct: purchased Perkin Elmer Biosignal
T2 sequence (Q8VIH9 1-385): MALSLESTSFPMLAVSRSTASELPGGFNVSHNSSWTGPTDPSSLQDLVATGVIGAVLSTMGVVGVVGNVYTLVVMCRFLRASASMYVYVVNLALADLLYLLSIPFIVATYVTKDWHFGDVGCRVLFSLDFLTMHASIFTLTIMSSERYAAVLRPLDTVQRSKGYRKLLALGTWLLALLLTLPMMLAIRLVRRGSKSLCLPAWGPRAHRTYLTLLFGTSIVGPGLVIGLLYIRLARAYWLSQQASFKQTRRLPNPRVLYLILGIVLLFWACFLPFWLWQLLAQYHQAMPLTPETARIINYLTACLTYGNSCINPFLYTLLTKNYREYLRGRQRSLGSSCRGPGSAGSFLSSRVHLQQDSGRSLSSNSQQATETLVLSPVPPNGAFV
Summary of the method: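 Cloned mouse urotensin (mUR2) receptor membranes from Perkin Elmer Biosignal were immobilized in FlashPlate microplates using a proprietary coating. Each well got 19.5 μl buffer, then 0.5 μl of DMSO, reference ligand, or compound. Adding 5 μl of [125I]-Urotensin II, diluted to 5× final concentration in binding buffer, started binding. Plates were sealed with TopSeal-A and incubated 1 hour at room temperature in the dark. Wells were counted for 30 seconds each on a TopCount after a 60-second delay, and percentage inhibition was calculated.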

Human μ-opioid (MOP) = biological target: T3, Human μ-opioid (MOP) (Homo sapiens, UniProt P35372); experiment: Radioligand binding, human μ-opioid (MOP) membranes, FlashPlate, [3H]-Naloxone; conditions: compound at 10 μM, [3H]-Naloxone
T3 construct: purchased Perkin Elmer Biosignal
Summary of the method: (§2)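 Cloned human receptor membranes were coated onto FlashPlate wells and incubated with radioligand and compound (added from a 0.5 mM DMSO daughter plate) for 1 hour at room temperature in the dark. Scintillation counting gave percent inhibition, with DMSO defining total and reference ligand defining non-specific binding.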

Human Melanocortin (MC4) = biological target: T4, Human Melanocortin (MC4) (Homo sapiens, UniProt P32245); experiment: Radioligand binding, human melanocortin MC4 membranes, FlashPlate, [125I]-NDP-αMSH; conditions: compound at 10 μM, [125I]-NDP-αMSH
T4 construct: purchased Perkin Elmer Biosignal
Summary of the method: as §2

[1] = biological target: T5, Human neuropeptide Y (NPY-Y1) (Homo sapiens, UniProt P25929); experiment: Radioligand binding, human neuropeptide Y NPY-Y1 membranes, FlashPlate, [125I]-PYY; conditions: compound at 10 μM, [125I]-PYY
T5 construct: purchased Perkin Elmer Biosignal
T5 sequence (P25929 1-384): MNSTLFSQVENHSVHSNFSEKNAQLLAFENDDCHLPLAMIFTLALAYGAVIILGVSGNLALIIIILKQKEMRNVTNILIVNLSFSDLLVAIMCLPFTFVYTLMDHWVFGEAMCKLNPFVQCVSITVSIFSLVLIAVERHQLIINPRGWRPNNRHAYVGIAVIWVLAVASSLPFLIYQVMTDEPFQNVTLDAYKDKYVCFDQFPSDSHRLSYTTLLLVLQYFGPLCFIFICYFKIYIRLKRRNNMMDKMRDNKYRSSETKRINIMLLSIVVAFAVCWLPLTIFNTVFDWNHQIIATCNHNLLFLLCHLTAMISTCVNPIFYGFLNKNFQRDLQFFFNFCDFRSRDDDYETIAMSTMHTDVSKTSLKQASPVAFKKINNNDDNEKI
Summary of the method: as §2

Human κ-Opioid (KOP) = biological target: T6, Human κ-Opioid (KOP) (Homo sapiens, UniProt P41145); experiment: Radioligand binding, human κ-opioid (KOP) membranes, filtration, [3H]-Diprenorphine; conditions: compound at 10 μM, [3H]-Diprenorphine
T6 construct: purchased Perkin Elmer Biosignal
Summary of the method: as §1

Human δ-opioid (DOP) = biological target: T7, Human δ-opioid (DOP) (Homo sapiens, UniProt P41143); experiment: Radioligand binding, human δ-opioid (DOP) membranes, FlashPlate, [3H]-Bremazocine; conditions: compound at 10 μM, [3H]-Bremazocine
T7 construct: purchased Perkin Elmer Biosignal
Summary of the method: as §2

Human melanocortin (MC5) = biological target: T8, Human melanocortin (MC5) (Homo sapiens, UniProt P33032); experiment: Radioligand binding, human melanocortin MC5 membranes, FlashPlate, [125I]-NDP-αMSH; conditions: compound at 10 μM, [125I]-NDP-αMSH
T8 construct: purchased Perkin Elmer Biosignal
Summary of the method: as §2

[2] = biological target: T9, Human melanin-concentrating hormone (MCH1) (Homo sapiens, UniProt Q99705); experiment: Radioligand binding, human melanin-concentrating hormone MCH1 membranes, FlashPlate, [125I]-S36057; conditions: compound at 10 μM
T9 construct: purchased Perkin Elmer Biosignal
Summary of the method: as §2

Human opioid (ORL1) = biological target: T10, Human opioid (ORL1) (Homo sapiens, UniProt P41146); experiment: Radioligand binding, human opioid ORL1 membranes, FlashPlate, [125I]-Nociceptin; conditions: compound at 10 μM, [125I]-Nociceptin
T10 construct: purchased Perkin Elmer Biosignal
Summary of the method: as §2

Human Melanocortin (MC3) = biological target: T11, Human Melanocortin (MC3) (Homo sapiens, UniProt P41968); experiment: Radioligand binding, human melanocortin MC3 membranes, FlashPlate, [125I]-NDP-αMSH; conditions: compound at 10 μM, [125I]-NDP-αMSH
T11 construct: purchased Perkin Elmer Biosignal
Summary of the method: as §2

T3 sequence (P35372 whole entry): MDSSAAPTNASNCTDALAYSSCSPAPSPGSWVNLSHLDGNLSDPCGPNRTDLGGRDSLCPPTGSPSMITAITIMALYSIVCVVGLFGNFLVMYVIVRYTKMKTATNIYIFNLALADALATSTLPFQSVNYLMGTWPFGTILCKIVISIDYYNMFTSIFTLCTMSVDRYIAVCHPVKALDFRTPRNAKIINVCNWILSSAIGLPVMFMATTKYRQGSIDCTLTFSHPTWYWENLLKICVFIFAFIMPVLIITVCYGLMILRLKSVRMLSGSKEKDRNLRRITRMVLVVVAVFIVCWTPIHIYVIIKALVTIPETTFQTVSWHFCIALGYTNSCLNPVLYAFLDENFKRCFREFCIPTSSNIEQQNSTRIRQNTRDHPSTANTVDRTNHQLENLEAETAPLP
T6 sequence (P41145 whole entry): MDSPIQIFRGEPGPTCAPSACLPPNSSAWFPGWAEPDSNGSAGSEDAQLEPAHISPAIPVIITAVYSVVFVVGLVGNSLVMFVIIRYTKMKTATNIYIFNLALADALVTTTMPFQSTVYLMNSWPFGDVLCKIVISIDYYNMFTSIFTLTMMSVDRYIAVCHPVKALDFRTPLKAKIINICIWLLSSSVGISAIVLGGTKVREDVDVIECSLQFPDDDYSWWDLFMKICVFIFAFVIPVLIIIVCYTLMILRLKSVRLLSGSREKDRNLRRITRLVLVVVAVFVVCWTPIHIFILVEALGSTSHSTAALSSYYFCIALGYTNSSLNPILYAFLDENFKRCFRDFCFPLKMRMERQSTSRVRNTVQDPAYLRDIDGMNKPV
T10 sequence (P41146 whole entry): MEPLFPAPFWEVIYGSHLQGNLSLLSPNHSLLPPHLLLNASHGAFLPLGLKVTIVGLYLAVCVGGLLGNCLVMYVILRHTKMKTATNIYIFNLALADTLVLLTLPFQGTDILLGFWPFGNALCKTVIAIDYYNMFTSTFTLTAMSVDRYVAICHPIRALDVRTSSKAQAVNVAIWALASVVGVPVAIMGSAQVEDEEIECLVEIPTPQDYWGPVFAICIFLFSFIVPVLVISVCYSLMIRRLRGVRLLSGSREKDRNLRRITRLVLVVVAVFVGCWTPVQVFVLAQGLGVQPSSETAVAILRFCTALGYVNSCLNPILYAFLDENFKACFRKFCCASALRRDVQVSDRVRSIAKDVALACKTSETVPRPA
T9 sequence (Q99705 whole entry): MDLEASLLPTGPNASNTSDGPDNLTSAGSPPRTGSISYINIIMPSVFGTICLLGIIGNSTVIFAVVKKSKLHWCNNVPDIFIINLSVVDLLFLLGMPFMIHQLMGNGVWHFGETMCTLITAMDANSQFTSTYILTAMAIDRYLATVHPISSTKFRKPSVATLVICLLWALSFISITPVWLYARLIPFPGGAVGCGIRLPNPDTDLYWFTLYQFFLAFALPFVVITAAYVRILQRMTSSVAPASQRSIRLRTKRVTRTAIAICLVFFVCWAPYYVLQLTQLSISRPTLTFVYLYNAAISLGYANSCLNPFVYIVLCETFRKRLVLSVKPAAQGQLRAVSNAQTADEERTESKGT
T1 sequence (P25103 whole entry): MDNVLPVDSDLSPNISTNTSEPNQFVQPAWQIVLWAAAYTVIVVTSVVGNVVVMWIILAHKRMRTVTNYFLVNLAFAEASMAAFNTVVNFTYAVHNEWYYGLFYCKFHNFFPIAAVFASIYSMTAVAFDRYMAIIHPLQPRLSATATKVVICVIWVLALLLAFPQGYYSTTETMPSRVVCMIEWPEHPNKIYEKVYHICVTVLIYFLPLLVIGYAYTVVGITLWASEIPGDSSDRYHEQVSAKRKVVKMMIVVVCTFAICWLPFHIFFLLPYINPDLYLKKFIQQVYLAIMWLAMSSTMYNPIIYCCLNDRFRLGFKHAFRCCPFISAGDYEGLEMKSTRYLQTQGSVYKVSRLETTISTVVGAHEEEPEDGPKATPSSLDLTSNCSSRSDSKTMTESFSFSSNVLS
T11 sequence (P41968 whole entry): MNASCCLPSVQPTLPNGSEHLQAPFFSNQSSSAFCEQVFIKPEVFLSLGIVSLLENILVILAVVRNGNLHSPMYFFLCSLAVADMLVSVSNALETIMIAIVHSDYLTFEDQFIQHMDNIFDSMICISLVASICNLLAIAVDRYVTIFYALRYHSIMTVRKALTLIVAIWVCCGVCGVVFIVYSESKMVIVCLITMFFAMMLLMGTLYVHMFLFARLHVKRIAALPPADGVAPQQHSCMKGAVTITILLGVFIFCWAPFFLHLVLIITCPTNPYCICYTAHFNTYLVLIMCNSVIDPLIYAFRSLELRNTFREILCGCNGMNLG
T7 sequence (P41143 whole entry): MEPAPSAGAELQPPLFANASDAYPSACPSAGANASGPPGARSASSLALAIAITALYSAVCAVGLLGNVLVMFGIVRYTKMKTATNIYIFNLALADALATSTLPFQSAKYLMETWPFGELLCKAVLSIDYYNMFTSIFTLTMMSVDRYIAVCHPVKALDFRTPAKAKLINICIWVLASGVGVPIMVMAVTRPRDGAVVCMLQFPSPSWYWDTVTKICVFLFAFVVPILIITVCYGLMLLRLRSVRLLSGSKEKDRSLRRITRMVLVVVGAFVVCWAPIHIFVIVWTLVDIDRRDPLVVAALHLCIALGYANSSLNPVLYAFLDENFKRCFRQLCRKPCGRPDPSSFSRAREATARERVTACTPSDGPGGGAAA
T8 sequence (P33032 whole entry): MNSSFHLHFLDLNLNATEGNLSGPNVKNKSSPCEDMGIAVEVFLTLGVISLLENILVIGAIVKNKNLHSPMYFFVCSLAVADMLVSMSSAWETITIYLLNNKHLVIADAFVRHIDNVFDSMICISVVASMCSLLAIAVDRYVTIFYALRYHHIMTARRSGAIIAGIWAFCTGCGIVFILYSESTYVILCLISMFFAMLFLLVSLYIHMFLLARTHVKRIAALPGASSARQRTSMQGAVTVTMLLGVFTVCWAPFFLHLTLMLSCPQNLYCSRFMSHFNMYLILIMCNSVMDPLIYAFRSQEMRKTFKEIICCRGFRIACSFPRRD
T4 sequence (P32245 whole entry): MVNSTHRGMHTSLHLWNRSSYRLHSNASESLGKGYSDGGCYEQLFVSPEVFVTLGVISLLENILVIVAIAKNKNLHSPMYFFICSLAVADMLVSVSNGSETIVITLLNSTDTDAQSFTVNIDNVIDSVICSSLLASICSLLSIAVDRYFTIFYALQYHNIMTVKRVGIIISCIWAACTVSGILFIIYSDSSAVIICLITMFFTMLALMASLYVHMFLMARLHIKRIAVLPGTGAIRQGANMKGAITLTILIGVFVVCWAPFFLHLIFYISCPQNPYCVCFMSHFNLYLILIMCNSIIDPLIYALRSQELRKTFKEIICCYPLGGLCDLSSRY

Compound: CO[C@H]1[C@H](O)[C@@H](COCc2ccccc2)OC(OCc2ccc(Cl)cc2)[C@@H]1NC(=O)CNC(=N)N (stereo partly shown) [compound 101]
- A8 radioligand binding, percentage inhibition (Human neurokinin (NK1)): − (“−” indicates less than 50% inhibition at 10 μM)
- A11 radioligand binding, percentage inhibition (Mouse urotensin (mUR2)): − (“−” indicates less than 50% inhibition at 10 μM)
- A7 radioligand binding, percentage inhibition (Human μ-opioid (MOP)): − (“−” indicates less than 50% inhibition at 10 μM)
- A4 radioligand binding, percentage inhibition (Human Melanocortin (MC4)): − (“−” indicates less than 50% inhibition at 10 μM)
- A9 radioligand binding, percentage inhibition [1]: − (“−” indicates less than 50% inhibition at 10 μM)
- A2 radioligand binding, percentage inhibition (Human κ-Opioid (KOP)): − (“−” indicates less than 50% inhibition at 10 μM)
- A1 radioligand binding, percentage inhibition (Human δ-opioid (DOP)): − (“−” indicates less than 50% inhibition at 10 μM)
- A5 radioligand binding, percentage inhibition (Human melanocortin (MC5)): + (“+” indicates greater than 50% inhibition at 10 μM)
- A6 radioligand binding, percentage inhibition ([2]; [125I]-S36057): − (“−” indicates less than 50% inhibition at 10 μM)
- A10 radioligand binding, percentage inhibition (Human opioid (ORL1)): − (“−” indicates less than 50% inhibition at 10 μM)
- A3 radioligand binding, percentage inhibition (Human Melanocortin (MC3)): − (“−” indicates less than 50% inhibition at 10 μM)

Compound: COCC1OC(OCc2ccc3ccccc3c2)C(NC(=O)CCN)C(OCc2ccc(Cl)cc2)C1O (stereo not shown) [compound 237]
- A8: inhibition of radioligand binding (Human neurokinin (NK1); filtration): + (“+” indicates greater than 50% inhibition at 10 μM)
- A11: inhibition of radioligand binding (Mouse urotensin (mUR2); FlashPlate): − (“−” indicates less than 50% inhibition at 10 μM)
- A7: inhibition of radioligand binding (Human μ-opioid (MOP); FlashPlate): − (“−” indicates less than 50% inhibition at 10 μM)
- A4: inhibition of radioligand binding (Human Melanocortin (MC4); FlashPlate): − (“−” indicates less than 50% inhibition at 10 μM)
- A9: inhibition of radioligand binding ([1]; FlashPlate): − (“−” indicates less than 50% inhibition at 10 μM)
- A2: inhibition of radioligand binding (Human κ-Opioid (KOP); filtration): − (“−” indicates less than 50% inhibition at 10 μM)
- A1: inhibition of radioligand binding (Human δ-opioid (DOP); FlashPlate): − (“−” indicates less than 50% inhibition at 10 μM)
- A5: inhibition of radioligand binding (Human melanocortin (MC5); FlashPlate): + (“+” indicates greater than 50% inhibition at 10 μM)
- A6: inhibition of radioligand binding ([2]; [125I]-S36057, FlashPlate): − (“−” indicates less than 50% inhibition at 10 μM)
- A10: inhibition of radioligand binding (Human opioid (ORL1); FlashPlate): − (“−” indicates less than 50% inhibition at 10 μM)
- A3: inhibition of radioligand binding (Human Melanocortin (MC3); FlashPlate): − (“−” indicates less than 50% inhibition at 10 μM)

Compound: NCCC(=O)NC1C(OCc2ccc3ccccc3c2)OC(COCc2ccc(Cl)cc2)C(O)C1OCc1ccccc1 (single isomer, unassigned) [compound 453]
- A8: inhibition of radioligand binding (Human neurokinin (NK1); human NK1 membranes): + (“+” indicates greater than 50% inhibition at 10 μM)
- A11: inhibition of radioligand binding (Mouse urotensin (mUR2); mouse mUR2 membranes): − (“−” indicates less than 50% inhibition at 10 μM)
- A7: inhibition of radioligand binding (Human μ-opioid (MOP); human MOP membranes): − (“−” indicates less than 50% inhibition at 10 μM)
- A4: inhibition of radioligand binding (Human Melanocortin (MC4); human MC4 membranes): + (“+” indicates greater than 50% inhibition at 10 μM)
- A9: inhibition of radioligand binding ([1]; human NPY-Y1 membranes): − (“−” indicates less than 50% inhibition at 10 μM)
- A2: inhibition of radioligand binding (Human κ-Opioid (KOP); human KOP membranes): − (“−” indicates less than 50% inhibition at 10 μM)
- A1: inhibition of radioligand binding (Human δ-opioid (DOP); human DOP membranes): − (“−” indicates less than 50% inhibition at 10 μM)
- A5: inhibition of radioligand binding (Human melanocortin (MC5); human MC5 membranes): + (“+” indicates greater than 50% inhibition at 10 μM)
- A6: inhibition of radioligand binding ([2]; [125I]-S36057, human MCH1 membranes, 10 µM): + (“+” indicates greater than 50% inhibition at 10 μM)
- A10: inhibition of radioligand binding (Human opioid (ORL1); human ORL1 membranes, 10 µM): − (“−” indicates less than 50% inhibition at 10 μM)
- A3: inhibition of radioligand binding (Human Melanocortin (MC3); human MC3 membranes, 10 µM): + (“+” indicates greater than 50% inhibition at 10 μM)

Compound: NCCC(=O)NC1C(OCc2ccccc2)OC(COCc2ccccc2)C(O)C1OCc1ccc2ccccc2c1 (stereo not shown) [compound 367]
- A8: inhibition of radioligand binding, human neurokinin (NK1) (Human neurokinin (NK1)): + (“+” indicates greater than 50% inhibition at 10 μM)
- A11: inhibition of radioligand binding, mouse urotensin (mUR2) (Mouse urotensin (mUR2)): − (“−” indicates less than 50% inhibition at 10 μM)
- A7: inhibition of radioligand binding, human μ-opioid (MOP) (Human μ-opioid (MOP)): − (“−” indicates less than 50% inhibition at 10 μM)
- A4: inhibition of radioligand binding, human melanocortin (MC4) (Human Melanocortin (MC4)): + (“+” indicates greater than 50% inhibition at 10 μM)
- A9: inhibition of radioligand binding, human neuropeptide Y (NPY-Y1) [1]: − (“−” indicates less than 50% inhibition at 10 μM)
- A2: inhibition of radioligand binding, human κ-opioid (KOP) (Human κ-Opioid (KOP)): − (“−” indicates less than 50% inhibition at 10 μM)
- A1: inhibition of radioligand binding, human δ-opioid (DOP) (Human δ-opioid (DOP)): − (“−” indicates less than 50% inhibition at 10 μM)
- A5: inhibition of radioligand binding, human melanocortin (MC5) (Human melanocortin (MC5)): + (“+” indicates greater than 50% inhibition at 10 μM)
- A6: inhibition of radioligand binding, human melanin-concentrating hormone (MCH1) ([2]; [125I]-S36057): − (“−” indicates less than 50% inhibition at 10 μM)
- A10: inhibition of radioligand binding, human opioid (ORL1) (Human opioid (ORL1)): − (“−” indicates less than 50% inhibition at 10 μM)
- A3: inhibition of radioligand binding, human melanocortin (MC3) (Human Melanocortin (MC3)): − (“−” indicates less than 50% inhibition at 10 μM)

Compound: COCC1OC(OCc2ccc3ccccc3c2)C(NC(=O)CCNC(=N)N)C(OCc2ccccc2)C1O (stereo not shown) [compound 232]
- A8: inhibition of radioligand binding (Human neurokinin (NK1); filtration): + (“+” indicates greater than 50% inhibition at 10 μM)
- A11: inhibition of radioligand binding (Mouse urotensin (mUR2); FlashPlate): − (“−” indicates less than 50% inhibition at 10 μM)
- A7: inhibition of radioligand binding (Human μ-opioid (MOP); FlashPlate): − (“−” indicates less than 50% inhibition at 10 μM)
- A4: inhibition of radioligand binding (Human Melanocortin (MC4); FlashPlate): − (“−” indicates less than 50% inhibition at 10 μM)
- A9: inhibition of radioligand binding ([1]; FlashPlate): − (“−” indicates less than 50% inhibition at 10 μM)
- A2: inhibition of radioligand binding (Human κ-Opioid (KOP); filtration): − (“−” indicates less than 50% inhibition at 10 μM)
- A1: inhibition of radioligand binding (Human δ-opioid (DOP); FlashPlate): − (“−” indicates less than 50% inhibition at 10 μM)
- A5: inhibition of radioligand binding (Human melanocortin (MC5); FlashPlate): − (“−” indicates less than 50% inhibition at 10 μM)
- A6: inhibition of radioligand binding ([2]; [125I]-S36057, FlashPlate): − (“−” indicates less than 50% inhibition at 10 μM)
- A10: inhibition of radioligand binding (Human opioid (ORL1); FlashPlate): − (“−” indicates less than 50% inhibition at 10 μM)
- A3: inhibition of radioligand binding (Human Melanocortin (MC3); FlashPlate): − (“−” indicates less than 50% inhibition at 10 μM)

— patent US20080009418A1, “Selective Inhibitors” (Alchemia LTD., priority 2004, published 2008)
